Key:
Klebsiella pneumoniae = experiment: In vitro turbidity test, 24 h in Muller-Hinton broth; assay type: cell-based; conditions: 100 μg/ml, 1 × 10^5 to 2 × 10^5 bacteria per milliliter, freedom from turbidity = active
[1] = system: Enterobacter aerogenes sp.; experiment: as above; assay type: cell-based; conditions: 100 μg/ml
Providencia = experiment: as above; assay type: cell-based; conditions: 100 μg/ml
Serratia marcescens = experiment: as above; assay type: cell-based; conditions: 100 μg/ml
Escherichia coli BE = experiment: as above; assay type: cell-based; conditions: 100 μg/ml
Salmonella sp. = experiment: as above; assay type: cell-based; conditions: 100 μg/ml
Shigella sp. = experiment: as above; assay type: cell-based; conditions: 100 μg/ml
[2] = system: Proteus, indole negative and indole positive sp.; experiment: as above; assay type: cell-based; conditions: 100 μg/ml
[3] = system: pasteurella pseudotuberculosis; assay type: cell-based; conditions: 100 μg/ml, 24 hours
Brucella sp. = assay type: cell-based; conditions: 100 μg/ml, 24 hours
Haemophilis influenzae = experiment: In vitro turbidity test, 24 h in Muller-Hinton broth; assay type: cell-based; conditions: 100 μg/ml
[4] = system: Bordetella bronchiseptica; experiment: as above; assay type: cell-based; conditions: 100 μg/ml
[5] = system: Staphylococcus aureus 133; experiment: as above; assay type: cell-based; conditions: 100 μg/ml
[6] = system: Neisseria catarrhalis sp.; experiment: as above; assay type: cell-based; conditions: 100 μg/ml
[7] = system: Diplococcus pneumoniae sp.; experiment: as above; assay type: cell-based; conditions: 100 μg/ml
[8] = system: Streptococcus pyogenes W.; experiment: as above; assay type: cell-based; conditions: 100 μg/ml
Enterococcus sp. = experiment: as above; assay type: cell-based; conditions: 100 μg/ml
Lactobacillus sp. = experiment: as above; assay type: cell-based; conditions: 100 μg/ml
[9] = system: Corynebacterium diphtheria gravis; experiment: as above; assay type: cell-based; conditions: 100 μg/ml
[10] = system: Corynebacterium pyogenes M.; experiment: as above; assay type: cell-based; conditions: 100 μg/ml
Escherichia coli C 165 = experiment: Animal experiments with white mice, intraperitoneal infection, survival after 24 hours; assay type: in vivo, white mice of strain CF1; conditions: C165, sc, subcutaneous, 1 administration 30 minutes after infection, dose at which 50% of infected animals survive, read-out: ED 50 after 24 hours
Description: (§1) The white mice of strain CF1 were infected intraperitoneally with the species of bacteria indicated. |Animal Experiments With White Mice |Determination of the ED 50 after 24 hours | Dose in mg of the cephalosporin from | Example 6 per kg of body weight |Germ (administered subcutaneously) |Therapy: 1 administration 30 minutes after infection. | The ED 50 is the dose at which 50% of the infected |animals still survive after 24 hours.

[11] = system: Staphylococcus aureus 133; experiment: as above; assay type: in vivo, white mice of strain CF1; conditions: Staphylococcus aureus, 133, sc, subcutaneous, 1 administration 30 minutes after infection, dose at which 50% of infected animals survive, read-out: ED 50 after 24 hours
Description: as §1

[12] = Antibiotic activity of electropherogram spot (organism not stated); assay type: cell-based
B. subtilis = experiment: Antibiotic activity of electropherogram spot; assay type: cell-based; conditions: against B. subtilis
Escherichia coli = experiment: Antibiotic activity of electropherogram spot; assay type: cell-based; conditions: against Escherichia coli
Pseudomonas aeruginosa = experiment: Antibiotic activity of electropherogram spot; assay type: cell-based; conditions: against Pseudomonas aeruginosa

Row | Compound | degree of turbidity (Klebsiella pneumoniae) | degree of turbidity [1] | degree of turbidity (Providencia) | degree of turbidity (Serratia marcescens) | degree of turbidity (Escherichia coli BE) | degree of turbidity (Salmonella sp.) | degree of turbidity (Shigella sp.) | degree of turbidity [2] | degree of turbidity [3] | degree of turbidity (Brucella sp.) | degree of turbidity (Haemophilis influenzae) | degree of turbidity [4] | degree of turbidity [5] | degree of turbidity [6] | degree of turbidity [7] | degree of turbidity [8] | degree of turbidity (Enterococcus sp.) | degree of turbidity (Lactobacillus sp.) | degree of turbidity [9] | degree of turbidity [10] | other results
1 | CC(=O)OCC1=C(C(=O)O)N2C(=O)[C@@H](NC(=O)[C@H](NC(=O)N3CCN(S(C)(=O)=O)C3=O)c3ccccc3)[C@H]2SC1 [Example 6, Sodium 7-{D-α-[(2-oxo-3-mesyl-imidazolidin-1-yl)-carbonylamino]-phenylacetamido}-3-acetoxymethyl-ceph-3-em-4-carboxylate] | free from turbidity | free from turbidity | free from turbidity | free from turbidity | free from turbidity | free from turbidity | free from turbidity | free from turbidity | free from turbidity | free from turbidity | free from turbidity | free from turbidity | free from turbidity | free from turbidity | free from turbidity | free from turbidity | free from turbidity | free from turbidity | free from turbidity | free from turbidity | ED50 (Escherichia coli C 165): 200 mg/kg; ED50 [11]: 10 mg/kg; antibiotic activity of the electropherogram spot [12]: one spot with antibiotic activity
2 | CC(=O)OCC1=C(C(=O)O)N2C(=O)[C@@H](NC(=O)[C@H](NC(=O)N3CCNC3=O)c3ccccc3)[C@H]2SC1 [Example 1, sodium 7-{D-α-[(2-oxo-imidazolidin-1-yl)carbonylamino]-phenylacetamido}-3-acetoxymethyl-ceph-3-em-4-carboxylate] | – | – | – | – | – | – | – | – | – | – | – | – | – | – | – | – | – | – | – | – | antibiotic activity of the electropherogram spot (B. subtilis): only one spot with antibiotic activity; antibiotic activity of the electropherogram spot (Escherichia coli): only one spot with antibiotic activity; antibiotic activity of the electropherogram spot (Pseudomonas aeruginosa): only one spot with antibiotic activity
3 | CC(=O)OCC1=C(C(=O)O)N2C(=O)[C@@H](NC(=O)[C@H](NC(=O)N3CCN(C)C3=O)c3ccccc3)[C@H]2SC1 [Example 3, sodium 7-{D-α-[(3-methyl-2-oxo-imidazolidin-1-yl)-carbonylamino]-phenylacetamido}-3-acetoxymethyl-ceph-3-em-4-carboxylate] | free from turbidity | free from turbidity | free from turbidity | free from turbidity | free from turbidity | free from turbidity | free from turbidity | free from turbidity | free from turbidity | free from turbidity | free from turbidity | free from turbidity | free from turbidity | free from turbidity | free from turbidity | free from turbidity | free from turbidity | free from turbidity | free from turbidity | free from turbidity | –
4 | CC1=C(C(=O)O)N2C(=O)[C@@H](NC(=O)[C@H](NC(=O)N3CCNC3=O)c3ccccc3)[C@H]2SC1 [Example 2, 7-{D-α-[(2-Oxo-imidazolidin-1-yl)-carbonylamino]-phenylacetamido}-3-methyl-ceph-3-em-4-carboxylic acid] | – | – | – | – | – | – | – | – | – | – | – | – | – | – | – | – | – | – | – | – | antibiotic activity of the electropherogram spot [12]: only one spot with antibiotic activity
5 | CC(=O)OCC1=C(C(=O)O)N2C(=O)[C@@H](NC(=O)[C@H](NC(=O)N3CCN(S(=O)(=O)c4ccccc4)C3=O)c3ccccc3)[C@H]2SC1 [Example 7, Sodium 7-{D-α-[(2-oxo-3-phenylsulphonyl-imidazolidin-1-yl)-carbonylamino]-phenylacetamido}-3-acetoxymethyl-ceph-3-em-4-carboxylate] | free from turbidity | free from turbidity | free from turbidity | free from turbidity | free from turbidity | free from turbidity | free from turbidity | free from turbidity | free from turbidity | free from turbidity | free from turbidity | free from turbidity | free from turbidity | free from turbidity | free from turbidity | free from turbidity | free from turbidity | free from turbidity | free from turbidity | free from turbidity | –

— patent publication US4107304A, “Oxo-imidazolidine substituted cephalosporins and antibacterial compositions and methods of combatting bacteria employing them” (Bayer Aktiengesellschaft, priority 1974, dated 1978)
